“Also recorded” adds a separate entry of the source. Like-named read-outs stand apart in the source and are kept apart here.

Data set [1] relates to cytolytic activity of human CTLs. Kind of data set: PMSF inhibition of cytolysis by human CTLs (2-h 51Cr-release assay). Format: cell-based. The following applies: 15 min in 6 mM PMSF. How it is done:
^51 Cr-release killing assays were performed as described; when measuring lectin-dependent cytolytic activity, Con A (Vector Laboratories,Inc., Burlingame, CA) was added to a final concentration of 10 μg/ml.
Various numbers of T cells were incubated for 15 min at 37° C. in K medium containing PMSF at 0, 2, 4, and 6 mM (PMSF was added in DMSO; the final concentration of DMSO in all instances was 1%). Cytotoxicity was assayed as above except that a 2 hour assay was used to minimize the effect of new protein synthesis.

The test system of data set [2] is human CTLs and target cells. Kind of data set: Viability of human CTLs (trypan blue exclusion) and targets (51Cr release) after PMSF. The following applies: 15 min in 6 mM PMSF.
The subject of another data set is G4 cells. The data set can be described thus: Toxicity of inhibitor for G4 cells (51Cr release, trypan blue recovery). The following applies: PMSF at the concentrations shown (0.375-3 mM), 3% DMSO. In kind it is cell-based, murine.
Data set [3] deals with T1, CTL serine esterase (BLT-serine esterase) in extract of murine CTL clone G4 (Mus musculus, UniProt P11032).
T1 sequence (P11032 29-260): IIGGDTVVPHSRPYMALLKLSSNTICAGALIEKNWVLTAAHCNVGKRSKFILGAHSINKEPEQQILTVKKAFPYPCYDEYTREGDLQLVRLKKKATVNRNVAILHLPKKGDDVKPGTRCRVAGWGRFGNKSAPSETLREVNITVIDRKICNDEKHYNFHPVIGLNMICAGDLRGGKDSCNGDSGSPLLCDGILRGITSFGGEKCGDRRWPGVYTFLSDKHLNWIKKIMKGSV

The subject of data set [4] is lysis of P815 (H-2d) cells by cloned anti-Dd G4 cells.
The target of data set [5] is T1, CTL serine esterase (BLT-serine esterase) in extract of murine CTL clone G4. Kind of data set: biochemical. As to conditions: read-out: Percent Inhibition of esterase activity.

As for `O=S(=O)(F)Cc1ccccc1` [PMSF, phenylmethylsulfonyl fluoride], the reduction of cytotoxicity entry in data set [1] is “approximately 75%”. Besides, in data set [2], the “viability of CTLs (trypan blue exclusion) and targets (release of 51Cr)” value is “not affecting the viability”. The “added toxicity for G4 cells (51Cr release or reduced recovery of viable cells)” value in the data set with G4 cells is on record as “no added toxicity”. Besides, in data set [3], the “Percent Inhibition of esterase activity” value came to 97.2 and the “inhibition of murine CTL serine esterase activity (in words)” value was “blocked completely; also recorded: inhibited; also recorded: completely inhibitable”. Moreover, the “inhibition of lysis of P815 cells by G4 cells (in words)” value in data set [4] (nontoxic concentrations, G4 preincubated 30 minutes at 37° C.) is given as “clearly inhibits lysis”.
Regarding `Cc1ccc(S(=O)(=O)N[C@@H](CCCCN)C(=O)CCl)cc1` [TLCK, N-α-tosyl lysyl chloromethyl ketone], in data set [3], the “inhibition of murine CTL serine esterase activity (in words)” value was “not and not, however, inhibited”; the “inhibition of serine esterase (in words)” value was “not inhibited”. The inhibition at 500 µM in data set [5] stood at 4.6%.
For the compound `Cc1ccc(S(=O)(=O)N[C@@H](Cc2ccccc2)C(=O)CCl)cc1` [TPCK, N-tosyl-L-phenylalanine chloromethyl ketone], the “inhibition of murine CTL serine esterase activity (in words)” value in data set [3] (murine enzyme) is listed as “not”.
Consider aprotinin, for which, in data set [3], the “inhibition in vitro of purified BLT serine esterase (in words)” value is “potent inhibitor” and the “inhibition of serine esterase (in words)” value is reported as “essentially totally inhibited”. In data set [4], the “inhibition of CTL-mediated lysis (in words)” value is listed as “does not inhibit” and the “inhibition of cytotoxicity (in words)” value is “appears to inhibit cytotoxicity”.
As to α2 macroglobulin, in data set [3], the “inhibition of serine esterase (in words)” value was “not inhibited”.

One may read the inhibition as the drop in the measured response relative to a control, in per cent.

Values taken from US5017489A (priority 1988, dated 1991).
